Source: US20210395239A1 (Hoffmann-La Roche Inc., priority 2018, published 2021)

Each molecule was assayed against T1, human TLR7 (Homo sapiens, UniProt Q9NYK1) (assay: HEK293-Blue-hTLR-7 cells assay (SEAP reporter, R848 stimulation)). Conditions: HEK293-Blue-hTLR7 cells, R848, 20 hrs; read-out: HEK/hTLR7 IC50.
T1 construct: host or cells: HEK293 (HEK-Blue hTLR7)
T1 sequence (Q9NYK1 27-1049): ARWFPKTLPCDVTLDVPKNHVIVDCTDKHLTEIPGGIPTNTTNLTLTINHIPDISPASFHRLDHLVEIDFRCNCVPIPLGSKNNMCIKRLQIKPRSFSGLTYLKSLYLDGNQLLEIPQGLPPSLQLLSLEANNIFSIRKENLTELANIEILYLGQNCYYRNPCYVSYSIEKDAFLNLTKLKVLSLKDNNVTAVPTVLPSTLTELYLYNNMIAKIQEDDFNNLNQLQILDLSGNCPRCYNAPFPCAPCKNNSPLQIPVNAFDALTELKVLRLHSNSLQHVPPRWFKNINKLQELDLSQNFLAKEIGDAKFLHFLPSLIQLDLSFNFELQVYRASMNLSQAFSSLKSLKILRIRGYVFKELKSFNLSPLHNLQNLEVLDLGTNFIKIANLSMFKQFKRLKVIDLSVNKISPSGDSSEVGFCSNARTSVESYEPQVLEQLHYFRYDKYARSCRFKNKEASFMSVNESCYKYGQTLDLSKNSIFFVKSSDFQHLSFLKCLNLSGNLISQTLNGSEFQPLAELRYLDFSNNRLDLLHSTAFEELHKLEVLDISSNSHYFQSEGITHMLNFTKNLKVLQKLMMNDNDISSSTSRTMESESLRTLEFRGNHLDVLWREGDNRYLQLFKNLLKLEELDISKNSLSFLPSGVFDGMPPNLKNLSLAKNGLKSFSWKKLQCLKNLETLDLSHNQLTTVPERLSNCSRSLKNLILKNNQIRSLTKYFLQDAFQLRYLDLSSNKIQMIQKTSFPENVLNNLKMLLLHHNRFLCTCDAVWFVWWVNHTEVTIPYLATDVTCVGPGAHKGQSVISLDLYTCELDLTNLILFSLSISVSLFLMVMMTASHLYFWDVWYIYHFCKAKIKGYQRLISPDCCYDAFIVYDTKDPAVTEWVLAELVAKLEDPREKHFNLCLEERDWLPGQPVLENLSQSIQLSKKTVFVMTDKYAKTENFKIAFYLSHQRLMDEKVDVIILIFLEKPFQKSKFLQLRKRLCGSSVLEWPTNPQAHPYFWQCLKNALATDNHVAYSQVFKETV
Format: cell-based
Description: HEK293-Blue-hTLR-7 Cells Assay:
A stable HEK293-Blue-hTLR-7 cell line was purchased from InvivoGen (Cat. #: hkb-ht1r7, San Diego, Calif., USA). These cells were originally designed for studying the stimulation of human TLR7 by monitoring the activation of NF-κB. A SEAP (secreted embryonic alkaline phosphatase) reporter gene was placed under the control of the IFN-β minimal promoter fused to five NF-κB and AP-1-binding sites. The SEAP was induced by activating NF-κB and AP-1 via stimulating HEK-Blue hTLR7 cells with TLR7 ligands. Therefore the reporter expression was declined by TLR7 antagonist under the stimulation of a ligand, such as R848 (Resiquimod), for incubation of 20 hrs. The cell culture supernatant SEAP reporter activity was determined using QUANTI-Blue™ kit (Cat. #: rep-qb1, Invivogen, San Diego, Ca, USA) at a wavelength of 640 nm, a detection medium that turns purple or blue in the presence of alkaline phosphatase.
HEK293-Blue-hTLR7 cells were incubated at a density of […] cells/mL in a volume of 170 μL in a 96-well plate in Dulbecco's Modified Eagle's medium (DMEM) containing 4.5 g/L glucose, 50 U/mL penicillin, […], […], 2 mM L-glutamine, 10% (v/v) heat-inactivated fetal bovine serum with addition of 20 μL test compound in a serial dilution in the presence of final DMSO at 1% and 10 μL of 20 uM R848 in above DMEM, perform incubation under 37° C. in a CO2 incubator for 20 hrs. Then 20 μL of the supernatant from each well was incubated with 180 μL Quanti-blue substrate solution at 37° C. for 2 hrs and the absorbance was read at 620˜655 nm using a spectrophotometer. The signaling pathway that TLR7 activation leads to downstream NF-κB activation has been widely accepted, and therefore similar reporter assay was modified for evaluating TLR7 antagonist.

Compound | IC50
Cc1ccc(N2C[C@H](CN3CCN(c4ccnc(N5CCN[C@H](C)C5)n4)CC3)O[C@H](C)C2)c2nccnc12 [Example 128, (2R,6S)-2-methyl-6-[[4-[2-[(3R)-3-methylpiperazin-1-yl]pyrimidin-4-yl]piperazin-1-yl]methyl]-4-(8-methylquinoxalin-5-yl)morpholine] | 30 nM
[2H]c1ccc2c(N3C[C@H](CN4CCN(c5nc(C)cc(N6CC(N)C6)n5)CC4)O[C@H](C)C3)ccc(C#N)c2n1 [Example 136, 5-[(2S,6R)-2-[[4-[4-(3-aminoazetidin-1-yl)-6-methyl-pyrimidin-2-yl]piperazin-1-yl]methyl]-6-methyl-morpholin-4-yl]-2-deuterio-quinoline-8-carbonitrile] | 7 nM
CO[C@H]1CN(c2nccc(N3CCN(C[C@H]4CN(c5ccc(C#N)c6nccnc56)C[C@@H](C)O4)CC3)n2)C[C@@H]1N [Example 99, 8-[(2S,6R)-2-[[4-[2-[(3S,4S)-3-amino-4-methoxy-pyrrolidin-1-yl]pyrimidin-4-yl]piperazin-1-yl]methyl]-6-methyl-morpholin-4-yl]quinoxaline-5-carbonitrile] | 11 nM
CO[C@@H]1CN(c2nccc(N3CCN(C[C@H]4CN(c5ccc(C#N)c6ncccc56)C[C@@H](C)O4)CC3)n2)C[C@@H]1N [Example 92, 5-[(2S,6R)-2-[[4-[2-[(3S,4R)-3-amino-4-methoxy-pyrrolidin-1-yl]pyrimidin-4-yl]piperazin-1-yl]methyl]-6-methyl-morpholin-4-yl]quinoline-8-carbonitrile] | 5 nM
C[C@@H]1CN(c2ccc(C#N)c3nccnc23)C[C@H](CN2CCN(c3ccnc(N4CC[C@@H](N)[C@H](F)C4)n3)CC2)O1 [Example 113, 8-[(2S,6R)-2-[[4-[2-[(3R,4R)-4-amino-3-fluoro-1-piperidyl]pyrimidin-4-yl]piperazin-1-yl]methyl]-6-methyl-morpholin-4-yl]quinoxaline-5-carbonitrile] | 8 nM
CO[C@H]1CN(c2ccnc(N3CCN(C[C@H]4CN(c5ccc(C#N)c6ncccc56)C[C@@H](C)O4)CC3)n2)C[C@@H]1N [Example 97, 5-[(2S,6R)-2-[[4-[4-[(3S,4S)-3-amino-4-methoxy-pyrrolidin-1-yl]pyrimidin-2-yl]piperazin-1-yl]methyl]-6-methyl-morpholin-4-yl]quinoline-8-carbonitrile] | 27 nM
[2H]c1ccc2c(N3C[C@H](CN4CCN(c5nc(C)cc(N6CC(C)(N)C6)n5)CC4)O[C@H](C)C3)ccc(C#N)c2n1 [Example 135, 5-[(2S,6R)-2-[[4-[4-(3-amino-3-methyl-azetidin-1-yl)-6-methyl-pyrimidin-2-yl]piperazin-1-yl]methyl]-6-methyl-morpholin-4-yl]-2-deuterio-quinoline-8-carbonitrile] | 16 nM
[2H]c1ccc2c(N3C[C@H](CN4CCN(c5ncc(N6CC(C)(N)C6)cc5C)CC4)O[C@H](C)C3)ccc(C#N)c2n1 [Example 139, 5-[(2S,6R)-2-[[4-[5-(3-amino-3-methyl-azetidin-1-yl)-3-methyl-2-pyridyl]piperazin-1-yl]methyl]-6-methyl-morpholin-4-yl]-2-deuterio-quinoline-8-carbonitrile] | 20 nM
Cc1ccc(N2C[C@H](CN3CCN(c4ccnc(N5CC(N)C5)n4)CC3)O[C@H](C)C2)c2nccnc12 [Example 130, 1-[4-[4-[[(2S,6R)-6-methyl-4-(8-methylquinoxalin-5-yl)morpholin-2-yl]methyl]piperazin-1-yl]pyrimidin-2-yl]azetidin-3-amine] | 16 nM
[2H]c1ccc2c(N3C[C@H](CN4CCN(c5ccc(N6CC7(CN(C)C7)C6)nc5)CC4)O[C@H](C)C3)ccc(C#N)c2n1 [Example 161, 2-deuterio-5-[(2R,6S)-2-methyl-6-[[4-[6-(6-methyl-2,6-diazaspiro[3.3]heptan-2-yl)-3-pyridyl]piperazin-1-yl]methyl]morpholin-4-yl]quinoline-8-carbonitrile] | 8 nM
[2H]c1ccc2c(N3C[C@H](CN4CC(c5cnc(N6C[C@@H](N)[C@H](OC)C6)cc5C)C4)O[C@H](C)C3)ccc(C#N)c2n1 [Example 146, 5-[(2S,6R)-2-[[3-[6-[(3R,4R)-3-amino-4-methoxy-pyrrolidin-1-yl]-4-methyl-3-pyridyl]azetidin-1-yl]methyl]-6-methyl-morpholin-4-yl]-2-deuterio-quinoline-8-carbonitrile] | 13 nM
[2H]c1ccc2c(N3C[C@H](CN4CCN(c5ncc(N6C[C@@H](N)[C@H](OC)C6)cc5C)CC4)O[C@H](C)C3)ccc(C#N)c2n1 [Example 142, 5-[(2S,6R)-2-[[4-[5-[(3R,4R)-3-amino-4-methoxy-pyrrolidin-1-yl]-3-methyl-2-pyridyl]piperazin-1-yl]methyl]-6-methyl-morpholin-4-yl]-2-deuterio-quinoline-8-carbonitrile] | 20 nM
Cc1ccc(N2C[C@H](CN3CCN(c4ccnc(N5CCN[C@@H](C)C5)n4)CC3)O[C@H](C)C2)c2nccnc12 [Example 127, (2R,6S)-2-methyl-6-[[4-[2-[(3S)-3-methylpiperazin-1-yl]pyrimidin-4-yl]piperazin-1-yl]methyl]-4-(8-methylquinoxalin-5-yl)morpholine] | 29 nM
[2H]c1ccc2c(N3C[C@H](CN4CCN(c5ccc(N6C[C@H]7C[C@@H]6CN7)nc5)CC4)O[C@H](C)C3)ccc(C#N)c2n1 [Example 153, 2-deuterio-5-[(2S,6R)-2-[[4-[6-[(1R,4R)-2,5-diazabicyclo[2.2.1]heptan-2-yl]-3-pyridyl]piperazin-1-yl]methyl]-6-methyl-morpholin-4-yl]quinoline-8-carbonitrile] | 32 nM
[2H]c1ccc2c(N3C[C@H](CN4CCN(c5ccc(N6C[C@H](N)[C@@H](F)C6)nc5)CC4)O[C@H](C)C3)ccc(C#N)c2n1 [Example 150, 5-[(2S,6R)-2-[[4-[6-[(3S,4S)-3-amino-4-fluoro-pyrrolidin-1-yl]-3-pyridyl]piperazin-1-yl]methyl]-6-methyl-morpholin-4-yl]-2-deuterio-quinoline-8-carbonitrile] | 35 nM
C[C@@H]1CN(c2ccc(C#N)c3ncccc23)C[C@H](CN2CCN(c3ccnc(N4C[C@@H](F)[C@@H](N)C4)n3)CC2)O1 [Example 95, 5-[(2S,6R)-2-[[4-[2-[(3S,4R)-3-amino-4-fluoro-pyrrolidin-1-yl]pyrimidin-4-yl]piperazin-1-yl]methyl]-6-methyl-morpholin-4-yl]quinoline-8-carbonitrile] | 7 nM
C[C@@H]1CN(c2ccc(C#N)c3ncccc23)C[C@H](CN2CCN(c3ccnc(N4C[C@@H](N)[C@H](F)C4)n3)CC2)O1 [Example 96, 5-[(2S,6R)-2-[[4-[2-[(3R,4R)-3-amino-4-fluoro-pyrrolidin-1-yl]pyrimidin-4-yl]piperazin-1-yl]methyl]-6-methyl-morpholin-4-yl]quinoline-8-carbonitrile] | 18 nM
[2H]c1ccc2c(N3C[C@H](CN4CC(c5ccc(N6CC(C)(N)C6)cc5)C4)O[C@H](C)C3)ccc(C#N)c2n1 [Example 141, 5-[(2S,6R)-2-[[3-[4-(3-amino-3-methyl-azetidin-1-yl)phenyl]azetidin-1-yl]methyl]-6-methyl-morpholin-4-yl]-2-deuterio-quinoline-8-carbonitrile] | 4 nM
